Laboratory results taken from ChEMBL document CHEMBL3120081, “Imidazopyridazine hepatitis C virus polymerase inhibitors. Structure-activity relationship studies and the discovery of a novel, traceless prodrug mechanism” (J Med Chem, 2014).

Legend:
[1] = AUC in CD rat at 300 mg/kg by LC/MS/MS analysis; format: ADME, organism-based; design: dose 300 mg/kg; conditions: plasma
[2] = AUC in CD rat at 100 mg/kg by LC/MS/MS analysis; format: ADME, organism-based; design: dose 100 mg/kg; conditions: plasma
[3] = AUC in CD rat at 30 mg/kg by LC/MS/MS analysis; format: ADME, organism-based; design: dose 30 mg/kg; conditions: plasma
[4] = AUC in CD rat at 10 mg/kg by LC/MS/MS analysis; format: ADME, organism-based; design: dose 10 mg/kg; conditions: plasma
[5] = Cmax in CD rat at 300 mg/kg by LC/MS/MS analysis; format: ADME, organism-based; design: dose 300 mg/kg; conditions: in vivo
[6] = Cmax in CD rat at 100 mg/kg by LC/MS/MS analysis; format: ADME, organism-based; design: dose 100 mg/kg; conditions: in vivo
[7] = Cmax in CD rat at 30 mg/kg by LC/MS/MS analysis; format: ADME, organism-based; design: dose 30 mg/kg; conditions: in vivo
[8] = Cmax in CD rat at 10 mg/kg by LC/MS/MS analysis; format: ADME, organism-based; design: dose 10 mg/kg; conditions: in vivo
[9] = Oral bioavailability in beagle dog at 1 mg/kg by LC/MS/MS analysis; format: ADME, organism-based, Canis lupus familiaris; conditions: in vivo
[10] = AUC in beagle dog at 1 mg/kg, po by LC/MS/MS analysis; format: ADME, organism-based, Canis lupus familiaris; design: dose 1 mg/kg, route oral; conditions: plasma
[11] = Half life in beagle dog at 1 mg/kg, iv by LC/MS/MS analysis; format: ADME, organism-based, Canis lupus familiaris; design: dose 1 mg/kg, route intravenous; conditions: in vivo
[12] = Volume of distribution in beagle dog at 1 mg/kg, iv by LC/MS/MS analysis; format: ADME, organism-based, Canis lupus familiaris; design: dose 1 mg/kg, route intravenous; conditions: in vivo
[13] = Clearance in beagle dog at 1 mg/kg, iv by LC/MS/MS analysis; format: ADME, organism-based, Canis lupus familiaris; design: dose 1 mg/kg, route intravenous; conditions: in vivo
[14] = Oral bioavailability in CD rat at 1 mg/kg by LC/MS/MS analysis; format: ADME, organism-based; conditions: in vivo
[15] = AUC in CD rat at 1 mg/kg, po by LC/MS/MS analysis; format: ADME, organism-based; design: dose 1 mg/kg, route oral; conditions: plasma
[16] = Half life in CD rat at 0.5 mg/kg, iv by LC/MS/MS analysis; format: ADME, organism-based; design: dose 0.5 mg/kg, route intravenous; conditions: in vivo
[17] = Volume of distribution in CD rat at 0.5 mg/kg, iv by LC/MS/MS analysis; format: ADME, organism-based; design: dose 0.5 mg/kg, route intravenous; conditions: in vivo
[18] = Clearance in CD rat at 0.5 mg/kg, iv by LC/MS/MS analysis; format: ADME, organism-based; design: dose 0.5 mg/kg, route intravenous; conditions: in vivo
[19] = Intrinsic clearance in beagle dog microsomes; format: ADME, Canis lupus familiaris, Microsome
[20] = Intrinsic clearance in CD rat microsomes; format: ADME, Microsome
[21] = target: Voltage-gated inwardly rectifying potassium channel KCNH2 (Homo sapiens, UniProt Q12809); test: Inhibition of human ERG expressed in HEK293 cells; format: cell-based
Voltage-gated inwardly rectifying potassium channel KCNH2, sequence (Q12809 whole entry): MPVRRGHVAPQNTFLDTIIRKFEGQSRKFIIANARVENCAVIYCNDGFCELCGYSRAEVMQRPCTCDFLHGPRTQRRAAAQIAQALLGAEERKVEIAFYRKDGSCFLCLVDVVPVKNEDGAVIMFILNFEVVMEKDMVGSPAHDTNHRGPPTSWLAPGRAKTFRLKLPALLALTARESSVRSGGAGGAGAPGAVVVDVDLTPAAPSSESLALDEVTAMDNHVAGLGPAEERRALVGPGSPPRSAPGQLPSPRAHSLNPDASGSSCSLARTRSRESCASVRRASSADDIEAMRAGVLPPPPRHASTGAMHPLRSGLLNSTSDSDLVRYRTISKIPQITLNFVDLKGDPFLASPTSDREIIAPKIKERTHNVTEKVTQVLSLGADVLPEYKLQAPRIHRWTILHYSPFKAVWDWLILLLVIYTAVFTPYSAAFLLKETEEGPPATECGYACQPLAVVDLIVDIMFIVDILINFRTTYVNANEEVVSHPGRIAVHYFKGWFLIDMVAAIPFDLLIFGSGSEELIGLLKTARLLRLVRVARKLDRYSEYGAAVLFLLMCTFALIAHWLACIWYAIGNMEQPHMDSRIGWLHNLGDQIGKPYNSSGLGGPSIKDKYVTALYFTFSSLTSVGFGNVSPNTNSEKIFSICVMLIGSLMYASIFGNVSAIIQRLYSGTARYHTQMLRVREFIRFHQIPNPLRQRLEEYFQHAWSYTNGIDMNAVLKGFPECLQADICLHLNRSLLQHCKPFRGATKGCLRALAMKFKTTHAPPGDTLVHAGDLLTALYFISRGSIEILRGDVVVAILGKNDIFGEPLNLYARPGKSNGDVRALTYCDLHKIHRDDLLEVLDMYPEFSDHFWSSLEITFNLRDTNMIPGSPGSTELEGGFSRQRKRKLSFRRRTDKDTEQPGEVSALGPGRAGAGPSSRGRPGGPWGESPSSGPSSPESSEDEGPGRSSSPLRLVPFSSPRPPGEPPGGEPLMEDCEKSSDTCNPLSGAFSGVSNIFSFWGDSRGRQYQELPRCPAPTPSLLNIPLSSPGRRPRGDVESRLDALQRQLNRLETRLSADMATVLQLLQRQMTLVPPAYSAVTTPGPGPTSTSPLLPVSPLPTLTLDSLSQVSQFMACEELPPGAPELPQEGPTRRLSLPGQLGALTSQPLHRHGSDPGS

[22] = Aqueous solubility of the compound at pH 6.8; format: physicochemical
[23] = Inhibition of Hepatitis C virus genotype 1b NS3; design: species or system Hepatitis C virus subtype 1b
[24] = Plasma protein binding in human at 5 uM after 4 hrs by rapid equilibrium dialysis technique; format: ADME, cell-free; conditions: read-out: PPB (converted)
[25] = Inhibition of Hepatitis C virus genotype 1b NS5B; design: species or system Hepatitis C virus subtype 1b
[26] = Cytotoxicity against human HepG2 cells after 48 hrs by WST assay; format: cell-based
[27] = Cytotoxicity against human MT4 cells after 48 hrs by WST assay; format: cell-based
[28] = Cytotoxicity against human HuH7 cells after 48 hrs by WST assay; format: cell-based, Huh-7
Hepatitis C virus [29] = test: Antiviral activity against Hepatitis C virus genotype 1b infected in human HuH7 cells after 48 hrs by luciferase reporter gene assay; format: functional, organism-based, Hepacivirus hominis; conditions: Huh-7, 48 h
Hepatitis C virus [30] = test: Antiviral activity against Hepatitis C virus genotype 1a infected in human HuH7 cells after 48 hrs by luciferase reporter gene assay; format: functional, organism-based, Hepacivirus hominis; conditions: subtype 1a, Huh-7, 48 h

## Fc1cccc(-c2nc3cnn(Cc4cc(-c5ccc(C(F)(F)F)cc5C(F)(F)F)no4)cc-3n2)c1F
[1]
  AUC: 31000 ng·h/mL
[2]
  AUC: 102000 ng·h/mL
[3]
  AUC: 98000 ng·h/mL
[4]
  AUC: 25000 ng·h/mL
[5]
  Cmax: 2900 ng/mL
[6]
  Cmax: 7400 ng/mL
[7]
  Cmax: 7200 ng/mL
[8]
  Cmax: 1900 ng/mL
[9]
  bioavailability: 18.8%
[10]
  AUC: 2000 ng·h/mL
[11]
  half-life: 6.9 h
[12]
  Vd: 0.83 L/kg
[13]
  clearance: 2.7 mL/min/kg
[14]
  bioavailability: 109%
[15]
  AUC: 6300 ng·h/mL
[16]
  half-life: 3.1 h
[17]
  Vd: 0.57 L/kg
[18]
  clearance: 3 mL/min/kg
[19]
  CLint scaled: < 10 mL/min/kg
[20]
  CLint scaled: < 10 mL/min/kg
[21]
  IC50: > 50.1 µM
[22]
  solubility: < 0.01 µg/mL
[23]
  IC50: > 50 µM
[24]
  fraction unbound at 4 h, 5 µM: 0.002
[25]
  IC50: > 50 µM
[26]
  CC50 at 48 h: > 50 µM
[27]
  CC50 at 48 h: > 50 µM
[28]
  CC50 at 48 h: > 50 µM
Hepatitis C virus [29]
  EC50: 0.016 µM
Hepatitis C virus [30]
  EC50: 0.12 µM
